Literature values in patent US20140363396A1, “ONCE DAILY TREATMENT OF HEPATITIS C WITH RIBAVIRIN AND TARIBAVIRIN” (priority 2012, published 2014).
Blank lines part the entries; values can stand above or below the compound they belong to.

Key:
[1] = compared with ribavirin
[2] = molecular target: T1, HCV NS3/4A protease (Hepatitis C virus genotype 1a, UniProt P27958); details: R-diastereomer compared with telaprevir
T1 construct: NS3 consists of an N-terminal serine protease domain and a C-terminal helicase domain
T1 sequence (P27958 1027-1657 limits assumed): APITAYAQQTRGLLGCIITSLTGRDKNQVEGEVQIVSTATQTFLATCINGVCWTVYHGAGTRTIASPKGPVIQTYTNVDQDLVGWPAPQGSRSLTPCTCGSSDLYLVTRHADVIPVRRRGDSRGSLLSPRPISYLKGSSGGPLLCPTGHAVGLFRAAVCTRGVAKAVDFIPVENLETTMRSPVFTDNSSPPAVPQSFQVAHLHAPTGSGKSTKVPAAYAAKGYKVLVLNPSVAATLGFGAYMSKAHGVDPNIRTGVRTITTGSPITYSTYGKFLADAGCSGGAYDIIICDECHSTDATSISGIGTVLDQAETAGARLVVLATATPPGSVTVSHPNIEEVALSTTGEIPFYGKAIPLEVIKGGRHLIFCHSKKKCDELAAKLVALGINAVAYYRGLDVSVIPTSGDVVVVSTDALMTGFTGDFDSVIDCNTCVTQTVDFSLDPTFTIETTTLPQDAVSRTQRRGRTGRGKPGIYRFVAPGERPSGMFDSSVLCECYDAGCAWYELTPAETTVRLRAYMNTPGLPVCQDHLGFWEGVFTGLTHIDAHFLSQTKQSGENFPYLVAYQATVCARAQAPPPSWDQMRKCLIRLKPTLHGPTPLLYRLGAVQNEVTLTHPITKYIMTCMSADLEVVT
T1 sequence (P27958 1658-1711 partner limits assumed): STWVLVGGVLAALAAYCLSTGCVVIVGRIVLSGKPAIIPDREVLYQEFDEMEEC

[3] = in vivo
[4] = in vivo; remark: listed apart in the source

SMILES: NC(=O)c1ncn([C@H]2O[C@@H](CO)[C@H](O)[C@@H]2O)n1 [Levovirin, 1-β-L-ribofuranosyl-1H-1,2,4-triazole-3-carboxamide]
toxicity [1]: less toxic

fold less potent than telaprevir [2]: approximately 30 fold
metabolite of telaprevir in plasma [3]: major metabolite in plasma
SMILES: CCC[C@@H](NC(=O)[C@@H]1[C@H]2CCC[C@H]2CN1C(=O)[C@@H](NC(=O)[C@@H](NC(=O)c1cnccn1)C1CCCCC1)C(C)(C)C)C(=O)C(=O)NC1CC1 [VRT-127394]

solubility in methanol, ethanol and isopropanol (methanol, ethanol and isopropanol): freely soluble
solubility in water: slightly soluble
SMILES: CC(C)(C)NC(=O)N[C@H](C(=O)N1C[C@H]2[C@@H]([C@H]1C(=O)NC(CC1CCC1)C(=O)C(N)=O)C2(C)C)C(C)(C)C (stereo partly drawn) [Boceprevir, (1R,5S)—N-[3-Amino-1-(cyclobutylmethyl)-2,3-dioxopropyl]-3-[2(S)-[[[(1,1-dimethylethyl)amino]carbonyl]amino]-3,3-dimethyl-1-oxobutyl]-6,6-dimethyl-3-azabicyclo[3.1.0]hexan-2(S)-carboxamide]

anemia [4]: significantly less anemia
SMILES: N=C(N)c1ncn([C@@H]2O[C@H](CO)[C@@H](O)[C@H]2O)n1 [taribavirin, 1-β-D-ribofuranosyl-1H-1,2,4-triazole-3-carboxamidine]

solubility in anhydrous alcohol (anhydrous alcohol): slightly soluble
solubility in water: freely soluble
SMILES: NC(=O)c1ncn([C@@H]2O[C@H](CO)[C@@H](O)[C@H]2O)n1 [Ribavirin, 1-β-D-ribofuranosyl-1H-1,2,4-triazole-3-carboxamide]
